According to patent publication US5340833A, “Urokinase inhibitors” (Eisai Co., Ltd., priority 1992, dated 1994):
Counter-ions that a name gives are not always drawn.

What follows are compounds tested against T1, human high molecular weight urokinase (Homo sapiens, UniProt P00749) (assay: Urokinase Direct Assay). Settings: inhibitor concentration of 1 mM.
T1 construct: human high molecular weight urokinase; purchased American Diagnostica, Greenwich, Conn
Assay type: biochemical
Procedure: (i) A direct chromogenic assay in which urokinase cleaves a synthetic tripeptide p-nitroanilide (pNA) urokinase substrate.
Incubations were carried out at 37° C. for approximately 2 hours or until adequate yellow color developed. Color was quantitated by measuring absorbance at 405 nm (A405) using a Titertek Multiskan MCC/340 MK II microtiter plate spectrophotometer.

uPA Direct: percentage of residual urokinase activity relative to inhibitor-free controls | Compound
1.3% | 4-(7-Amidino-E-hept-1-enyl)benzo[b]thiophene-2-carboxamidine bishydrochloride [Compound 33]

Same assay, conditions: read-out: uPA Direct: percentage of residual urokinase activity relative to inhibitor-free controls; heading: uPA Direct: percentage of residual urokinase activity relative to inhibitor-free controls; inhibitor concentration of 1 mM

Compound | residual urokinase activity at 1000 µM
COc1c(Br)cc(Br)c2sc(C(=N)N)cc12 [Compound 311, 5,7-Dibromo-4-methoxybenzo[b]thiophene-2-carboxamidine hydrochloride] | 18%
CCc1ccc2sc(C(=N)N)cc2c1 [Compound 106, 5 -Ethylbenzo[b]thiophene-2-carboxamidine hydrochloride] | 3.6%
C=C(C)c1cccc2sc(C(=N)N)cc12 [Compound 18, 4-(1-Methylethenyl)benzo[b]thiophene-2-carboxamidine hydrochloride] | 1.3%
CC(C)C=Cc1ccc2sc(C(=N)N)cc2c1 [Compound 119, 5-(E/Z-3-Methylbut-1-enyl)benzo[b]thiophene-2-carboxamidine hydrochloride] | 4.9%
N=C(N)c1ccc2ccsc2c1 [Compound 315, Benzo[b]thiophene-6-carboxamidine hydrochloride] | 21%
N=C(N)c1ccc(-c2cccc3sc(C(=N)N)cc23)cc1 [Compound 47, 4-(4-Carboxamidinophenyl)benzo[b]thiophene-2-carboxamidine bis-hydrochloride] | 7.6%
C=C(C)c1ccc2sc(C(=N)N)cc2c1 [Compound 115, 5-(1-Methylethenyl)benzo[b]thiophene-2-carboxamidine hydrochloride] | 1.2%
N=C(N)c1cc2c(CCC3CC3)cccc2s1 [Compound 14, 4-(2-Cyclopropylethyl)benzo[b]thiophene-2-carboxamidine hydrochloride] | 0.54%
CCC(C)=Cc1cccc2sc(C(=N)N)cc12 [Compound 21, 4-(E/Z-2-Methylbut-1-enyl)benzo[b]thiophene-2-carboxamidine hydrochloride] | 1.1%
N=C(N)c1cc2c(-c3ccc([N+](=O)[O-])cc3)cccc2s1 [Compound 46, 4-(4-Nitrophenyl)benzo[b]thiophene-2-carboxamidine hydrochloride] | 1%
N=C(N)c1cc2cccnc2s1 [Compound 318, Pyrido[2,3-b]thiophene-2-carboxamidine hydrochloride] | 55%
N=C(N)c1cc2c(C3CCCO3)cccc2s1 (racemic) [Compound 61, 4-([R,S]-Tetrahydrofuran-2-yl)benzo[b]thiophene-2-carboxamidine hydrochloride] | 0.6%
N=C(N)Nc1cc2ccccc2s1 [Compound 319, 2-Guanidinobenzo[b]thiophene hydrochloride] | > 90%
COc1ccc(Br)c2sc(C(=N)N)cc12 [Compound 309, 7-Bromo-4-methoxybenzo[b]thiophene-2-carboxamidine hydrochloride] | 18%
CCCCc1ccc2sc(C(=N)N)cc2c1 [Compound 108, 5-Butylbenzo[b]thiophene-2-carboxamidine hydrochloride] | 3.4%
CCC(C)=Cc1ccc2sc(C(=N)N)cc2c1 [Compound 118, 5-(E/Z-2-Methylbut-1-enyl)benzo[b]thiophene-2-carboxamidine hydrochloride] | 1.2%
N=C(N)c1cc2c(-c3ccc(-c4ccc5c(c4)OCO5)o3)cccc2s1 [Compound 79, 4-[5-(Benzo-1,3-dioxolan-5-yl)fur-2-yl]benzo[b]thiophene-2-carboxamidine hydrochloride] | 1.5%
N=C(N)c1cc2cc(Cl)ccc2s1 [Compound 102, 5-Chlorobenzo[b]thiophene-2-carboxamidine hydrochloride] | 2.9%

What follows are compounds tested against T2, human two-chain tPA (Homo sapiens, UniProt P00750) (assay: tPA Indirect (Plasminogen-Linked) Assay (tPA Direct Assay result where lower)). Settings: tPA Indirect Plasminogen-Linked Assay; in rare cases direct assay result if lower; read-out: tPA IC50.
T2 construct: human two-chain tPA was substituted for urokinase; purchased American Diagnostica
Assay type: biochemical
Text: (iv) Both direct and plasminogen-linked pNA assays for tPA, the other mammalian plasminogen activator and the key initiator of blood clot dissolution or fibrinolysis. Since urokinase and tPA share an absolute specificity for the same peptide bond in plasminogen, urokinase inhibitors designed to block cellular invasiveness must be highly specific for urokinase over tPA in order to avoid serious thrombotic side effects secondary to undesired blockage of normal fibrinolysis. […] Spectrozyme tPA®, American Diagnostica) was substituted for urokinase substrate.

T2 sequence (P00750 311-562 limits assumed): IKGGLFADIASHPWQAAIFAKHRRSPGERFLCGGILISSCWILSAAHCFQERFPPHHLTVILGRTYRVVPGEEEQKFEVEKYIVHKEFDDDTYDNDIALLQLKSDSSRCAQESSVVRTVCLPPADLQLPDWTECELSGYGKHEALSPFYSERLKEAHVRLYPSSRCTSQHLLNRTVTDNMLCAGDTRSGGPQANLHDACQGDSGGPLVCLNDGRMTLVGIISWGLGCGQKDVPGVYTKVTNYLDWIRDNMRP
T2 sequence (P00750 36-310 limits assumed): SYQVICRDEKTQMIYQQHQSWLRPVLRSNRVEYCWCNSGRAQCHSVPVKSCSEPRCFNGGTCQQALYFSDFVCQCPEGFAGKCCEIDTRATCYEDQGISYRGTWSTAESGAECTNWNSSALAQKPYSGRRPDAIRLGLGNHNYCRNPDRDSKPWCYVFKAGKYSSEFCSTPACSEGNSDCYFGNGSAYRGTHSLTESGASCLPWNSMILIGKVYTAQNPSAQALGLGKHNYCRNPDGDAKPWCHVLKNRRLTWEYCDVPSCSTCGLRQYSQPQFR

IC50 | Compound
478 µM | Cc1cccc2sc(C(=N)N)cc12 [Compound 6, 4-Methylbenzo[b]thiophene-2-carboxamidine hydrochloride]

The compounds below were run against T3, human plasmin (Homo sapiens, UniProt P00747) (assay: Plasmin Assay). Settings: read-out: PLASMIN IC50.
T3 construct: plasmin, the potent general protease produced by cleavage of plasminogen by either urokinase or tPA; purchased American Diagnostica
Assay type: biochemical
Procedure: (v) A chromogenic pNA assay for plasmin, the potent general protease produced by cleavage of plasminogen by either urokinase or tPA. Although urokinase initiates cellular invasiveness by generating plasmin, the additional importance of plasmin in tPA-mediated fibrinolysis dictates that plasmin itself should be free from inhibition by urokinase inhibitors designed as anti-invasiveness agents. […] All other assay conditions, as well as methods of color quantitation, were carried out as described above for the urokinase direct assay.

T3 sequence (P00747 581-810 limits assumed): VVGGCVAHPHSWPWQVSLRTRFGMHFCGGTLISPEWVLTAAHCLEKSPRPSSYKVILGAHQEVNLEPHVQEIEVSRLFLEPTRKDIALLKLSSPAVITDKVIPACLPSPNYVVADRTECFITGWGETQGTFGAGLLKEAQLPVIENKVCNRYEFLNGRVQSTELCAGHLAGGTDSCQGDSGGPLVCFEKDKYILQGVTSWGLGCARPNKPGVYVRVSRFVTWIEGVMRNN
T3 sequence (P00747 97-580 limits assumed): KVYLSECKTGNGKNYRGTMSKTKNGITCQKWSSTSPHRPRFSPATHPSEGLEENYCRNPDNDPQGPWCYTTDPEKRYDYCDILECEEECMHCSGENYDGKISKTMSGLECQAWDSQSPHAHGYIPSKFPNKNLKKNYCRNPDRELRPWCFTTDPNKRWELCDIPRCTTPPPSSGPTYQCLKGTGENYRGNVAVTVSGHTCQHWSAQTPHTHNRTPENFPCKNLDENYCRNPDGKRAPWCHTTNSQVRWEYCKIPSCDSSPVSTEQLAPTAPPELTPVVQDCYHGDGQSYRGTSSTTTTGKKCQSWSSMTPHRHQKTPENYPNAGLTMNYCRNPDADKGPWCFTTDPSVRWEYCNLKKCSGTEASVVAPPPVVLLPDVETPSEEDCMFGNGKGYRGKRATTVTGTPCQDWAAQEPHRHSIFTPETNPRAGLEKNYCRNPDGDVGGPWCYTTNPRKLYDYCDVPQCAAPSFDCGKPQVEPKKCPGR

IC50 | Compound
881 µM | Cc1cccc2sc(C(=N)N)cc12 [Compound 6, 4-Methylbenzo[b]thiophene-2-carboxamidine hydrochloride]
